“And” between values parts separate entries of the source, which are not always exact repeats. Equal values may be shown once. Read-outs that look alike come from different tables or passages of the source.
What was measured:
Test in all cases: SelectScreen kinase assay
DYRK4 = DYRK4 (Homo sapiens, UniProt Q9NR20); format: biochemical
ADRBK2 (GRK3) = target: T1, ADRBK2 (GRK3) (Homo sapiens, UniProt P35626)
T1 sequence (P35626 1-688): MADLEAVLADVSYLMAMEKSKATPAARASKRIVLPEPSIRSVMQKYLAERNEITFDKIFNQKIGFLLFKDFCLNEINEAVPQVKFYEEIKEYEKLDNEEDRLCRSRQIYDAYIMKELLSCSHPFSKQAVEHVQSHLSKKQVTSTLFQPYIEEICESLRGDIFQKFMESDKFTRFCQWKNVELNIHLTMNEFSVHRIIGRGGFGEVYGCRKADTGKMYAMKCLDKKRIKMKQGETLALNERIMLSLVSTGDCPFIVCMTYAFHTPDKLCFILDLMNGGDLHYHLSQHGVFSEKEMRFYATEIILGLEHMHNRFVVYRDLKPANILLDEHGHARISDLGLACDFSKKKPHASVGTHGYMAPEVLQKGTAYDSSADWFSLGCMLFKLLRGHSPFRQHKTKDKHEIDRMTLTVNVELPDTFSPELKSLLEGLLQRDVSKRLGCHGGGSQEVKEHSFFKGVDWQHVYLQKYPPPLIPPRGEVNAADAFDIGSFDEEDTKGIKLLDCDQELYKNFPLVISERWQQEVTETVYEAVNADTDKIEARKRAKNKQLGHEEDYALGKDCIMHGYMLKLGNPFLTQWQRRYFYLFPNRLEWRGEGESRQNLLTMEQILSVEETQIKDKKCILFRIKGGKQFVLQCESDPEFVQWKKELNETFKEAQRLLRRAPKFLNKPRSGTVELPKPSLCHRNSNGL
Procedure: (§1) Selectivity profiling assays were performed by the Invitrogen SelectScreen™ Services. […] The concentration of ATP was selected to be equal to the KM, unless indicated otherwise.

DDR1 = DDR1 (Homo sapiens, UniProt Q08345)
Procedure: as §1

DYRK1A = DYRK1A (Homo sapiens, UniProt Q13627); conditions: for Inhibition at 1 µM (%): DYRK1A, ZLYTE, ATP Km app
Procedure: as §1

NEK2 = NEK2 (Homo sapiens, UniProt P51955)
Chain of NEK2 (P51955 whole entry): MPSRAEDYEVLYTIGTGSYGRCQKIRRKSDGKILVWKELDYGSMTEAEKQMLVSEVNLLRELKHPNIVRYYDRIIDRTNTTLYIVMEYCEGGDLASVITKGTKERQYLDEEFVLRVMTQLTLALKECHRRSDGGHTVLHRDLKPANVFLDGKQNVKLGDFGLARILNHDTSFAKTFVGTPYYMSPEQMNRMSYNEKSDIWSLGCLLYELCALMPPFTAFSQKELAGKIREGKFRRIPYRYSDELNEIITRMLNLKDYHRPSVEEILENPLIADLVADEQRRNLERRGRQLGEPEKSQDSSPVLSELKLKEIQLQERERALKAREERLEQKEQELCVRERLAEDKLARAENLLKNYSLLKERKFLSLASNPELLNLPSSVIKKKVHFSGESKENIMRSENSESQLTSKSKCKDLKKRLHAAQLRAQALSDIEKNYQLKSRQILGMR
Procedure: as §1

PEAK1 = PEAK1 (Homo sapiens, UniProt Q9H792)
Chain of PEAK1 (Q9H792 whole entry): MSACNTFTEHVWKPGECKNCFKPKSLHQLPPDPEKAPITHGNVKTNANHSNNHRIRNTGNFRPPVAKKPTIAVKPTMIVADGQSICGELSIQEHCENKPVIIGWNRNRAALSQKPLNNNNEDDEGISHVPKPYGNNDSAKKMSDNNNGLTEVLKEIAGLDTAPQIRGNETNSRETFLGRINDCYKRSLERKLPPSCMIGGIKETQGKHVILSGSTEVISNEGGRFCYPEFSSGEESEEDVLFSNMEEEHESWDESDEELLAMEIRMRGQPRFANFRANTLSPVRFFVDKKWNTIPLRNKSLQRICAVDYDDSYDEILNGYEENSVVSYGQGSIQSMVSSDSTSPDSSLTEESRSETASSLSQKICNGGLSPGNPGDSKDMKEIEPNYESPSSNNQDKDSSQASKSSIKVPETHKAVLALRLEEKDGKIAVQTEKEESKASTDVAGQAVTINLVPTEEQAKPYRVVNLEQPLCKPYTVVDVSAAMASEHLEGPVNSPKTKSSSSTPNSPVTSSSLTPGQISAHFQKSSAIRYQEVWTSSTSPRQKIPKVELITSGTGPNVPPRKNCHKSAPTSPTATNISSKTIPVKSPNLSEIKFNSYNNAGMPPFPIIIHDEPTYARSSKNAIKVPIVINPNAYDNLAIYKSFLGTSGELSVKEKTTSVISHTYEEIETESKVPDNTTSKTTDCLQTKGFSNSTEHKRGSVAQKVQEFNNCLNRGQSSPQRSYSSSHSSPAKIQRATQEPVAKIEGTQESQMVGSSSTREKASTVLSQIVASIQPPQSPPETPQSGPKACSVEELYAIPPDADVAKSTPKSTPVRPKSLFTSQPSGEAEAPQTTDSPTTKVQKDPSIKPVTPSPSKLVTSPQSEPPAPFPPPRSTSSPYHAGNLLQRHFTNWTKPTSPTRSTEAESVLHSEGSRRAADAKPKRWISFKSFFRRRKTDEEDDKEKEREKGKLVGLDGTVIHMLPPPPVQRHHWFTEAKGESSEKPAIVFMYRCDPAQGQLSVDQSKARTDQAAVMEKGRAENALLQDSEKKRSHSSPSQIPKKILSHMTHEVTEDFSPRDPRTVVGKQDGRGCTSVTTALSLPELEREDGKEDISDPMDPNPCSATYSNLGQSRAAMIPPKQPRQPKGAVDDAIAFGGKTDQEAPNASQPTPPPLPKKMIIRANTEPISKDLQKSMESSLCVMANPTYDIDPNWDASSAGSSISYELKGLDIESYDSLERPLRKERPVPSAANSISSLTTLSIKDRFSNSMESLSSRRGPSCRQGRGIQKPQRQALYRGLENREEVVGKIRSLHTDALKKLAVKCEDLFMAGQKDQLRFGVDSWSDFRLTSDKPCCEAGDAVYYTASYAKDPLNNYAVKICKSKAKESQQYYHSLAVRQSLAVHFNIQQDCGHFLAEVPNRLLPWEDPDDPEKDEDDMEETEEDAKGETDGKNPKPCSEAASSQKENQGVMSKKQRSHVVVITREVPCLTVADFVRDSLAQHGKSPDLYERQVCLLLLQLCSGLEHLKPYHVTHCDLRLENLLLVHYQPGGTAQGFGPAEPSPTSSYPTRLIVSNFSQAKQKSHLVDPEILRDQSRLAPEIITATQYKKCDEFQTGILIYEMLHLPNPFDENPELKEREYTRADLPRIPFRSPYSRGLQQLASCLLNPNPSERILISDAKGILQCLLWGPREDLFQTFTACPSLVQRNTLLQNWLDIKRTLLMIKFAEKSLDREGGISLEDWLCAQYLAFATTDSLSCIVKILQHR
Procedure: as §1

SIK3 = SIK3 (Homo sapiens, UniProt Q9Y2K2)
Chain of SIK3 (Q9Y2K2 whole entry): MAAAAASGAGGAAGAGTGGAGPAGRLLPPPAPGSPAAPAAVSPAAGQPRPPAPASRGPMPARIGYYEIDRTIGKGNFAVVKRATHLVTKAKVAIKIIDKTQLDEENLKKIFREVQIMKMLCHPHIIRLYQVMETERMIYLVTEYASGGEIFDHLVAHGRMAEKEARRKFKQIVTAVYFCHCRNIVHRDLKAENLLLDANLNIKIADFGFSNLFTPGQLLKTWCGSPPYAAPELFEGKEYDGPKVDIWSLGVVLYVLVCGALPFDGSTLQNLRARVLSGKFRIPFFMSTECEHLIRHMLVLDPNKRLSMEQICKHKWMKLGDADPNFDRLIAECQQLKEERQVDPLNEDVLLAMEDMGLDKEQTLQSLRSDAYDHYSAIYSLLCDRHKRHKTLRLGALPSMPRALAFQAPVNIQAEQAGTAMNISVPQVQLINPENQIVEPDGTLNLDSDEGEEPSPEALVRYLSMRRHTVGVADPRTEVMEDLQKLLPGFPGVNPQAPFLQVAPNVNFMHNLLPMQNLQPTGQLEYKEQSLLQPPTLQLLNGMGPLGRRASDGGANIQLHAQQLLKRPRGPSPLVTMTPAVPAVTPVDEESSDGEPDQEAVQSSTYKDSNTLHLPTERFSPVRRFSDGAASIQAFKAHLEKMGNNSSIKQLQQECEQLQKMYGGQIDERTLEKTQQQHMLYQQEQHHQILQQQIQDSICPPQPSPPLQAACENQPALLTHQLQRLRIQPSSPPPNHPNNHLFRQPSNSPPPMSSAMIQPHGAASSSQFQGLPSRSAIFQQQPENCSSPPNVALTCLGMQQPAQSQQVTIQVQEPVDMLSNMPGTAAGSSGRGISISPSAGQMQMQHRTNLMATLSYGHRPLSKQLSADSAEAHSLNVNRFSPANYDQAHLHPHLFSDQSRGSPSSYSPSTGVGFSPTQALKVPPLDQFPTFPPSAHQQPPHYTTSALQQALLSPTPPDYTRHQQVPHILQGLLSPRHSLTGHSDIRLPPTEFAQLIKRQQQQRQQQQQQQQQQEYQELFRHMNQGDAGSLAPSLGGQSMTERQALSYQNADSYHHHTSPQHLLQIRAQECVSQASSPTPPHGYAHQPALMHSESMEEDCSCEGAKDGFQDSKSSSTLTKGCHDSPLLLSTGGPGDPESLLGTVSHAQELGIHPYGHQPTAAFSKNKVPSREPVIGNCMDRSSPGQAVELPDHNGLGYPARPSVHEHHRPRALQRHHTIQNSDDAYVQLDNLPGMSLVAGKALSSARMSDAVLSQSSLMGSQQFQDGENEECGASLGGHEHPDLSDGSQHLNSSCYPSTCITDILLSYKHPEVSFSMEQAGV
Procedure: as §1

TEC = target: T2, TEC (Homo sapiens, UniProt P42680); conditions: for Inhibition at 1 µM (%): LanthaScreen Binding
T2 sequence (P42680 1-631): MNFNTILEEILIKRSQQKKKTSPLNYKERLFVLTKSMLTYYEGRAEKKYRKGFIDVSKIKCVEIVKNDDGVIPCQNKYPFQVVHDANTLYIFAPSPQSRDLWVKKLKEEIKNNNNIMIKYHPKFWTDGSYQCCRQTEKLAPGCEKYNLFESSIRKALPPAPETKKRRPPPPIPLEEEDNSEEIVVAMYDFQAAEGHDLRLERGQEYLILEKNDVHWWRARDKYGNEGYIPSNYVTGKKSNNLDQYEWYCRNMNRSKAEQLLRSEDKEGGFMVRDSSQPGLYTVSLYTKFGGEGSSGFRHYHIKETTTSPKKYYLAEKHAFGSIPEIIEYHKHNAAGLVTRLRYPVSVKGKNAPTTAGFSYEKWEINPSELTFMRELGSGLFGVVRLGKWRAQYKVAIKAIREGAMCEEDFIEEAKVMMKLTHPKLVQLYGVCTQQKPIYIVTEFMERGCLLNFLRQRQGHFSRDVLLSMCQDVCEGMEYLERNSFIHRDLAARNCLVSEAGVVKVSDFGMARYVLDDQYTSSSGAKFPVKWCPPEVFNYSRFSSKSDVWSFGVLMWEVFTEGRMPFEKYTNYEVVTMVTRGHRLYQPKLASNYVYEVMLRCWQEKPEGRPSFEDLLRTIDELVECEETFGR
Procedure: as §1

ZAK = ZAK (Homo sapiens, UniProt Q9NYL2); conditions: for Inhibition at 1 µM (%): LanthaScreen Binding
Chain of ZAK (Q9NYL2 whole entry): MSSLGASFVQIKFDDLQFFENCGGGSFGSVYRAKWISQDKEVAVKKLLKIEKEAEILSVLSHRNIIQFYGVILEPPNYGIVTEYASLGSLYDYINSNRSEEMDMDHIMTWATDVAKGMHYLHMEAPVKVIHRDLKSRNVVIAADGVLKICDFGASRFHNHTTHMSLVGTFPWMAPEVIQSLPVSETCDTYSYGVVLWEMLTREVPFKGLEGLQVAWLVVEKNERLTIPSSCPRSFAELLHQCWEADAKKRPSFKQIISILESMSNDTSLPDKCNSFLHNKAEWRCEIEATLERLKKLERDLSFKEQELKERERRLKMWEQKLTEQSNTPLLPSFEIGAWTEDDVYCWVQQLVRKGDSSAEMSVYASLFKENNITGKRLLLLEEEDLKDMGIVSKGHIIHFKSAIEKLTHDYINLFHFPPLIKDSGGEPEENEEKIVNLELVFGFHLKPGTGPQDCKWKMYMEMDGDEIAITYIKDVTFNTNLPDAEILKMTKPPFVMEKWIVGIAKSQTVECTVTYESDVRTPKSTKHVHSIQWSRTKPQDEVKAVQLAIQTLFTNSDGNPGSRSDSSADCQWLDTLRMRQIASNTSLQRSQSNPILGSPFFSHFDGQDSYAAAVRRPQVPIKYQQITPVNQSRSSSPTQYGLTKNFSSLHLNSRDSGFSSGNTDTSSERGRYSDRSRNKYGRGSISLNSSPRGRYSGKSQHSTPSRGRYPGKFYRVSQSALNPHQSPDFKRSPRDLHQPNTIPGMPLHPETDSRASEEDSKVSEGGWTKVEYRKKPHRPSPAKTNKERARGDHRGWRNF
Procedure: as §1

[1] = 1 h, 1 μM WEL028, 1 h preincubation

Chain of DYRK4 (Q9NR20 whole entry): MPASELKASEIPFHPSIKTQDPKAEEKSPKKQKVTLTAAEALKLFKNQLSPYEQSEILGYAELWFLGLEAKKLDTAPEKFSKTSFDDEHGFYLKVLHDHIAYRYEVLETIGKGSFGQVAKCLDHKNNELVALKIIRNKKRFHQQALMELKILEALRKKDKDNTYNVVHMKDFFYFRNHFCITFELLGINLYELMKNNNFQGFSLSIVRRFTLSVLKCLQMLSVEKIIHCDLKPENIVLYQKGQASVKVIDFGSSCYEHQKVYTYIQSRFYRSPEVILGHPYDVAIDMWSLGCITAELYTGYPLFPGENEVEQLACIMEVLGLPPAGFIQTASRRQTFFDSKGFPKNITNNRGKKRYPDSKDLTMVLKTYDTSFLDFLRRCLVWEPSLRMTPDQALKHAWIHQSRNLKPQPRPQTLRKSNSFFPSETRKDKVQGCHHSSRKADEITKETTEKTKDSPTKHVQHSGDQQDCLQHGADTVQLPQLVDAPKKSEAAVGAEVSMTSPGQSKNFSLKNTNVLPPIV

C#CCOc1ccc(Nc2ncc(Cl)c(Nc3ccccc3NC(=O)C=C)n2)c(OC)c1 [Compound 6]
inhibition at 1 µM (DYRK4; [1]): 0% | Inhibition at 1 µM (%) (DYRK4; DYRK4, 1 µM, ZLYTE, ATP Km app, listed as WEL028, 1 µM): -4% and 4% | inhibition at 1 µM (ADRBK2 (GRK3); [1]): 7% | Inhibition at 1 µM (%) (ADRBK2 (GRK3); ADRBK2 (GRK3), 1 µM, ZLYTE, ATP Km app, listed as WEL028, 1 µM): 8% | inhibition at 1 µM (ADRBK2 (GRK3); read-out: Inhibition at 1 µM (%), ADRBK2 (GRK3), 1 µM, ZLYTE, ATP Km app): 5% | inhibition at 1 µM (DDR1; [1]): -2% | Inhibition at 1 µM (%) (DDR1; DDR1, 1 µM, LanthaScreen Binding, listed as WEL028, 1 µM): -3% | inhibition at 1 µM (DYRK1A; [1]): 1% | Inhibition at 1 µM (%) (DYRK1A): 3% | Inhibition at 1 µM (%) (DYRK1A; listed as WEL028, 1 µM): 0% | inhibition at 1 µM (NEK2; [1]): 12% | Inhibition at 1 µM (%) (NEK2; NEK2, 1 µM, ZLYTE, ATP Km app): 21% | inhibition at 1 µM (PEAK1; [1]): 7% | Inhibition at 1 µM (%) (PEAK1; PEAK1, 1 µM, ZLYTE, ATP Km app, listed as WEL028, 1 µM): 8% | inhibition at 1 µM (PEAK1; read-out: Inhibition at 1 µM (%), PEAK1, 1 µM, ZLYTE, ATP Km app): 6% | Inhibition (%) (SIK3; 1 μM WEL028, 1 h preincubation): 2% | Inhibition at 1 µM (%) (SIK3; 1 µM, LanthaScreen Binding, listed as WEL028, 1 µM): 0% and 5% | Inhibition at 1 µM (%) (TEC): 2% | Inhibition at 1 µM (%) (TEC; listed as WEL028, 1 µM): 7% | inhibition at 1 µM (TEC; [1]): 5% | Inhibition at 1 µM (%) (ZAK): 2% | Inhibition at 1 µM (%) (ZAK; listed as WEL028, 1 µM): 6% | inhibition at 1 µM (ZAK; [1]): 4%
